# Experiments:
# human α2β1 sGC isozyme = target: T1, human α2β1 sGC isozyme (Homo sapiens, UniProt P33402+Q02153); test: cGMP assay on human α2β1 sGC isozyme stably expressed in CHO-K1 cells; type: cell-based; settings: 10 μM DETA-NONOate, 20 min, cGMP content, geometrical mean
# T1 construct: host or cells: CHO-K1
# T1 sequence (P33402 1-732): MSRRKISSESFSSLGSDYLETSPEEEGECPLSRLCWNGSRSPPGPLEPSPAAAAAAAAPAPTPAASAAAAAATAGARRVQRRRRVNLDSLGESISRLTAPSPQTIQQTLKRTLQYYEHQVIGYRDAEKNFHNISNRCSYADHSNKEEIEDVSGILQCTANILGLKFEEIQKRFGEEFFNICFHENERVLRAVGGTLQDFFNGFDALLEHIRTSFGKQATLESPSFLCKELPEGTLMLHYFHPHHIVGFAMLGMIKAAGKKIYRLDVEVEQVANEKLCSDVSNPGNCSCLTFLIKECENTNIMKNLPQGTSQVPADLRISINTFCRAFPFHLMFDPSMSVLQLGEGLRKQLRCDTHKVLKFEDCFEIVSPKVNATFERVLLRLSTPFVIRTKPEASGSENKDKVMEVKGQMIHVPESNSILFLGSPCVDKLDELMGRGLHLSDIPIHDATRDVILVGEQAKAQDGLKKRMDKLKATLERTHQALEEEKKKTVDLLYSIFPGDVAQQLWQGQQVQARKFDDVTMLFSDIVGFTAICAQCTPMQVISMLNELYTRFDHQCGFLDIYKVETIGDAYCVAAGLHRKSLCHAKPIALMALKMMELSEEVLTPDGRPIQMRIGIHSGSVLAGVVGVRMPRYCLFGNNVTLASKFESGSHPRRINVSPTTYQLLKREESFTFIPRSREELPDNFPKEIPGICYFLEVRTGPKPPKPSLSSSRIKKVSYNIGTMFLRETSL
# T1 sequence (Q02153 1-619): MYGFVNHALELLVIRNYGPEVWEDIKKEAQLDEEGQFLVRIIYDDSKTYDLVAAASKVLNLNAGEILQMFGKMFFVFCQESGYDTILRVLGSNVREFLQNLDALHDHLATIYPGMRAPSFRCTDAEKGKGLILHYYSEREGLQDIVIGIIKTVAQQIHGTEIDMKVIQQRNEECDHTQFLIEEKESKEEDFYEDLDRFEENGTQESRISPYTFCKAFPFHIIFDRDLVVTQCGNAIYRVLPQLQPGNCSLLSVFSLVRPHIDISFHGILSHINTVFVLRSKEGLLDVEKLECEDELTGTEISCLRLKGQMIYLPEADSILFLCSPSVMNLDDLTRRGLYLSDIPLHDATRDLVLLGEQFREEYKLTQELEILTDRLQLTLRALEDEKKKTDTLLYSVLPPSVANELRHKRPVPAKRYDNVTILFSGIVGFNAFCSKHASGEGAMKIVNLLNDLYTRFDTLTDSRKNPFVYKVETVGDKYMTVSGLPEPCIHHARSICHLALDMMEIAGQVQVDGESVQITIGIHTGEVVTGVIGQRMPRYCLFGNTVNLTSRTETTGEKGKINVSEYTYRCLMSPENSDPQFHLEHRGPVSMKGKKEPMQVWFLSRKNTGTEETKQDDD
# Method: sGC stimulators were dissolved in DMSO as a 10 mM solution and stored at −20° C. To achieve desired test concentrations, stock concentrations were serially diluted into DMSO and then diluted to the appropriate concentration in assay buffer.
# CHO-K1 cells stably transfected with human α2β1 sGC isozyme (generated by GenScript for Ironwood) were cultured in F-12K medium (ATCC catalog #30-2004) with 10% fetal calf serum, 4 μg/mL puromycin (Gibco catalog #A11138-03) and 0.4 mg/mL of geneticin (Gibco catalog #10131-027) in a 95% humidified atmosphere containing 5% CO2 in air at 37° C. For GC activity assays, cells were seeded in 384 well poly-D-lysine coated flat bottom plates (Fisher Scientific #08-774-311) in either 50 μL or 70 μL medium at a density of either 3×10^4 cells/well or 15×10^3, respectively. Cells were incubated for 24 hours at 37° C. in a humidified chamber supplemented with 5% CO2. […]
# Following incubation with compound, assay buffer was removed and 50 μL of ice-cold 10% acetic acid+150 ng/mL internal standard (+3 cGMP) was added to each well. […] Following centrifugation at 4° C. for 5 min at 1000×g to pellet cell debris, the supernatant was transferred to a clean plate and the samples analyzed for cGMP content.
# Data were analyzed with a 4-parameter fit (log(agonist) vs. response—variable slope) using GraphPad Prism Software v.8. […]
# normotensive rats = test: Blood pressure effects in normotensive rats following acute oral dose; type: in vivo, rat; settings: Milli-Q water
# Method: Male, normotensive Sprague Dawley rats were purchased from Charles River Laboratories. These rats have indwelling femoral artery catheters installed. Animals were harnessed to a tether system and attached to pressure transducers to monitor cardiovascular (CV) parameters, specifically mean arterial pressure (MAP) and heart rate (HR). Animals were acclimated to the system overnight and baseline CV parameters collected. The conscious, freely moving rats were then administered a single oral dose of the Compound I-14 (doses generated from the sodium salt of Compound 14) in Milli-Q water at 1, 3, 10 and 30 mg/kg. A blood sample was collected from each animal through the catheter line at pre-dose and 2 hours post-dose for compound concentration quantification. Hemodynamic measures were recorded for ten hours post-dose. […]
# ADInstruments LabChart (v8) was used to monitor and export hemodynamic data. Blood pressure and heart rate were continuously monitored, and data were collected at 1000 data points per second then averaged into 10-minute bins for analysis. Change from baseline MAP (ΔBMAP) and HR (ΔBHR) were calculated using the pre-dose baseline averaged over the 1-hr period prior to dosing using Microsoft Excel for Microsoft 365. […]
# Statistical analyses were performed in Graphpad Prism (v8). […] Vehicle-adjusted HR (ΔVHR) was calculated in a similar manner to ΔVMAP. […]
smiles,measurement,setting,value
"Cc1cc(F)c(Cc2nc(-c3ncc(F)c(O)n3)cn3ccnc23)cc1F [Compound I-14, 5-fluoro-2-(8-(2,5-difluoro-4-methylbenzyl)imidazo[1,2-a]pyrazin-6-yl)pyrimidin-4-ol]",EC50,human α2β1 sGC isozyme,≤ 100 nM
same,effect on MAP from baseline and as adjusted from vehicle,"normotensive rats; 3, 10, and 30 mg/kg single oral dose",lowered MAP
same,change from baseline MAP (ΔBMAP) compared with vehicle-treated rats,"normotensive rats; single oral dose 1, 3, 10 and 30 mg/kg, 2-way ANOVA significant",greater decrease in MAP
